Measurements: BindingDB's records for doi:10.1007/pl00005315 (Eli Lilly, 1999)

How the values were obtained:
[1] = biological target: 5-hydroxytryptamine receptor 2B (Homo sapiens, UniProt P41595)
[2] = biological target: 5-hydroxytryptamine receptor 2A (Homo sapiens, UniProt P28223)
[3] = biological target: 5-hydroxytryptamine receptor 2B (Rattus norvegicus, UniProt P30994)
[4] = biological target: T1, 5-hydroxytryptamine receptor 2C (Homo sapiens, UniProt P28335)
T1 sequence (P28335 whole entry): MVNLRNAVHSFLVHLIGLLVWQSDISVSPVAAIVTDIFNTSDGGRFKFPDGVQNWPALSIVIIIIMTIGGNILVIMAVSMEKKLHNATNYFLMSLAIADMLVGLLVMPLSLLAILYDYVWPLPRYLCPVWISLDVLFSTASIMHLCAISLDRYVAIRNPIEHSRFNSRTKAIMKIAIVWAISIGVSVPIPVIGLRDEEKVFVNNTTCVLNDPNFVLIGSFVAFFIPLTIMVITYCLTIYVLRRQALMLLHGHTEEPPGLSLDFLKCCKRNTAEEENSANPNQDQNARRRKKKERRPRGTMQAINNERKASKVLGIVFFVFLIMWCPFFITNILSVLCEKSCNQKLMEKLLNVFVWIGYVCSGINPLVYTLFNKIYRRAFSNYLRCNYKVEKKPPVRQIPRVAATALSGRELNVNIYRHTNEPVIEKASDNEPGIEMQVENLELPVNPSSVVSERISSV

Sequence of 5-hydroxytryptamine receptor 2A (P28223 whole entry): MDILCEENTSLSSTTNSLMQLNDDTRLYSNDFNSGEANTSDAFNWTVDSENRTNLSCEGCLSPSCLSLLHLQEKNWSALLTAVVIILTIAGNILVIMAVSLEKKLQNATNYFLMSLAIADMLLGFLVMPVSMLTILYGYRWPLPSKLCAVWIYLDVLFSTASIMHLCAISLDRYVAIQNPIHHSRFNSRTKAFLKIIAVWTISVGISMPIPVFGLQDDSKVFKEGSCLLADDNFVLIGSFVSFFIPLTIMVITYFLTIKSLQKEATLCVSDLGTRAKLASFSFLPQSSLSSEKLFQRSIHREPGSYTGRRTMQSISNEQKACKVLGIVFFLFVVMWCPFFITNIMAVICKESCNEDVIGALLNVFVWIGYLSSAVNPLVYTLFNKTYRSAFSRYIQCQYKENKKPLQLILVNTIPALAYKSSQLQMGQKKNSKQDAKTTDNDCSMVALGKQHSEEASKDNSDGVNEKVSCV
Sequence of 5-hydroxytryptamine receptor 2B (Rattus norvegicus, UniProt P30994) (P30994 whole entry): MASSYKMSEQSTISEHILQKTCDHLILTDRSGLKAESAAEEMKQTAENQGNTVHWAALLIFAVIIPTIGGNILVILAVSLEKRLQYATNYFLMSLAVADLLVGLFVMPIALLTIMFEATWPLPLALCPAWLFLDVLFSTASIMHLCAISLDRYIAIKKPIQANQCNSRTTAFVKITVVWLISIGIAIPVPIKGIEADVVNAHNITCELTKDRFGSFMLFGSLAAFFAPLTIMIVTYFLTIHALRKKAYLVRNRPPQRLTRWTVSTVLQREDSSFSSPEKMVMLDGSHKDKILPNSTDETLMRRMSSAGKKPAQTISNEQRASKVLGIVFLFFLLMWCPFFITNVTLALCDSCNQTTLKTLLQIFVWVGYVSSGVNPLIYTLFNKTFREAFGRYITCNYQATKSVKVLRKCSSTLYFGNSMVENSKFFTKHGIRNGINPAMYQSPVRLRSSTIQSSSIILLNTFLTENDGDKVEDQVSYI
Sequence of 5-hydroxytryptamine receptor 2B (Homo sapiens, UniProt P41595) (P41595 whole entry): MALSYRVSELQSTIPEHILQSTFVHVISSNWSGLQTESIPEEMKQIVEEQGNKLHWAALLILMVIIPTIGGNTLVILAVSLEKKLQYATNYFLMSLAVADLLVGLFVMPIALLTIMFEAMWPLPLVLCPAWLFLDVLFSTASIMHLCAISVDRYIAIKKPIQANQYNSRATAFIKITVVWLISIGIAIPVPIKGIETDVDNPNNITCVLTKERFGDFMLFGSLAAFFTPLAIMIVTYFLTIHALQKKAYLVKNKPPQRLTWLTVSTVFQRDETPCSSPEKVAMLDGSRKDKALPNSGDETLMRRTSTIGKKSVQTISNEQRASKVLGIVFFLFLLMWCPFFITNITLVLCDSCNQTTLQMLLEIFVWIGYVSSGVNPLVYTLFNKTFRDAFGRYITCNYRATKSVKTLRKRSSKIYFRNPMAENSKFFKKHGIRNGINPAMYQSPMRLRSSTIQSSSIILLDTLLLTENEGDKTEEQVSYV

For `COc1cc(CC(C)N)cc(OC)c1OC` (configuration not stated), the Ki [1] was 307 nM, the Ki [2] was 57.9 nM and the Ki [3] was 187 nM.
In the case of `CCCNC(C)Cc1cc(OC)c(Br)cc1OC` (configuration not stated), the Ki [4] is reported as 514 nM, the Ki [1] is reported as 521 nM and the Ki [3] is reported as 976 nM.
For `COc1cc(CC(C)N)c(OC)cc1F` (configuration not stated), the Ki [4] was 28.7 nM, the Ki [1] was 227 nM and the Ki [2] was 41.7 nM. The Ki [3] was 306 nM.
Molecule `COc1cc(CC(C)N)c(OC)cc1C#N` (configuration not stated) has a Ki [4] of 1010 nM, a Ki [1] of 774 nM and a Ki [2] of 45.7 nM. For the same molecule, the Ki [3] was 877 nM.
Molecule `COc1cc(CC(C)N)c(OC)cc1Cc1ccccc1` (configuration not stated) has a Ki [4] of 1 nM, a Ki [1] of 35 nM and a Ki [2] of 0.4 nM. For the same molecule, the Ki [3] was 53.8 nM.
Work on `COc1cc(C(C)=O)c(OC)cc1CC(C)N` (configuration not stated) [1-(4-acetyl-2,5-dimethoxyphenyl)-2-aminopropane] yielded a Ki [4] of 91.3 nM, a Ki [1] of 313 nM and a Ki [2] of 80.5 nM. It also gave a Ki [3] of 947 nM.
`CCCc1cc(OC)c(CC(C)N)cc1OC` (configuration not stated) [2-(2,5-Dimethoxy-4-propyl-phenyl)-1-methyl-ethylamine(DOPR)] was tested, and the Ki [4] was 1.1 nM, the Ki [1] was 54.4 nM and the Ki [2] was 0.9 nM. For the same molecule, the Ki [3] was 115 nM.
For `COc1ccc(OC)c(CC(C)N)c1` (configuration not stated) [2-(2,5-Dimethoxy-phenyl)-1-methyl-ethylamine], the Ki [4] was 104 nM and the Ki [1] was 1040 nM.
Work on `COc1cc(CC(C)N)c(OC)cc1Br` (stereo not drawn) [2-(4-Bromo-2,5-dimethoxy-phenyl)-1-methyl-ethylamine((-)-DOB)] yielded a Ki [1] of 26.9 nM.
For `C[C@]12CC[C@H]3[C@@H](CCC4=CC(=O)CC[C@@]43C)[C@@H]1CC[C@@H]2C(=O)CO` [(1S,2R,10S,11S,14S,15S)-14-(2-hydroxyacetyl)-2,15-dimethyltetracyclo[8.7.0.0^{2,7}.0^{11,15}]heptadec-6-en-5-one], the Ki [4] was 2 nM, the Ki [1] was 31.8 nM and the Ki [2] was 1.4 nM. For the same molecule, the Ki [3] was 26.8 nM.
Work on `COCCOCCl` [CAS_3970-21-6] yielded a Ki [4] of 124 nM, a Ki [1] of 763 nM and a Ki [2] of 73 nM. It also gave a Ki [3] of 1130 nM.
`CCCCCCc1cc(OC)c(CC(C)N)cc1OC` (configuration not stated) [DOHx] was tested, and the Ki [4] was 0.7 nM, the Ki [1] was 30.3 nM and the Ki [2] was 0.1 nM. The Ki [3] was 49 nM.
`COc1cc([N+](=O)[O-])c(OC)cc1CC(C)N` (configuration not stated) [DON] showed a Ki [4] of 22.4 nM, a Ki [1] of 166 nM and a Ki [2] of 5.5 nM. It also gave a Ki [3] of 248 nM.
`COc1cc(C(C)(C)C)c(OC)cc1CC(C)N` (configuration not stated) [DOTB] gave a Ki [4] of 2.2 nM, a Ki [1] of 24.6 nM and a Ki [2] of 3.7 nM. It also gave a Ki [3] of 49.6 nM.
With `COc1cc(CC(C)N(C)C)c(OC)cc1Br` (configuration not stated) [M-154] the Ki [4] was 68.1 nM, the Ki [1] was 341 nM and the Ki [2] was 94.2 nM. It also gave a Ki [3] of 683 nM.
`COc1cc(CC(C)[N+](C)(C)C)c(OC)cc1Br` (configuration not stated) [N,N,N-trimethyl-1-(4-bromo-2,5-dimethoxyphenyl)-2-aminopropane] was tested, and the Ki [4] was 6300 nM, the Ki [1] was > 10000 nM and the Ki [2] was 2150 nM. For the same molecule, the Ki [3] was > 10000 nM.
